Results reported in patent publication US20070003525A1, “Hydrogel compositions comprising nucleus pulposus tissue” (priority 2003, published 2007).

What was measured:
Assay type in all cases: cell-based
[1] = system: Sheep nucleus chondrocytes; test: MTT cytotoxicity of the photo-initiating system
Description: Sheep nucleus chondrocytes were seeded in a 12-well plate at 20,000 cells/well and incubated with TCM. After allowing cells to adhere for over 48 hours, spent media was replaced with TCM containing 0 or 1000 ppm Irgacure 2959. SNCs were then exposed to long wave ultraviolet light at 365 nm wavelength for different lengths of time, followed by incubation at 37° C. MTT assay was performed at 1, 5, and 24 hours post UV exposure to assess viability of cells. The principle of the assay is similar to the MTS assay mentioned before, except that a different tetrazolium compound is used in this method.

[2] = system: Sheep nucleus cells (SNCs)
Description: The monomer solution was poured into molds and photo-polymerized using long-wave ultraviolet light at 365 nm wavelength. Polymerized hydrogels were placed into tissue culture inserts which were then placed above seeded SNCs. Cytotoxicity of unpolymerized matrix was also determined, by including inserts containing unpolymerized monomer solution. SNC seeded wells containing empty inserts served as controls. SNCs and inserts were completely immersed in TCM. […] The MTS assay measures viability of cells by a calorimetric method, wherein the MTS tetrazolium compound is bio reduced by cells into a colored formazan product which is soluble in TCM. The conversion is accomplished by dehydrogenase enzymes present in metabolically active cells.

[3] = system: sheep intervertebral disc nucleus pulposus cells; test: Alcian blue assay of proteoglycan synthesis, sheep cells; conditions: 10 ng/ml
Description: Human intervertebral disc cells from Example 9 were seeded and grown in 24 well plates in TCM in the presence or absence of exogenous growth factors. At various time points, TCM was aspirated out from the wells and the wells washed 3 times with PBS. The cells were then fixed with 4% paraformaldehyde (pH 7.4) for 10 min. The fixed cells were washed 2 times with PBS and then stained overnight with 0.5% Alcian blue in 0.1N hydrochloric acid (pH 1.5). After overnight staining, excess stain was rinsed out with 3 rinses of PBS. The remaining Alcian blue stain (bound to proteoglycans) was dissolved overnight into 6 M guanidine hydrochloride and the absorbance at 630 nm was measured using a spectrophotometer, providing an indication of the induction of matrix production by exogenous growth factors in human nucleus pulposus cells. […]
Transforming growth factor-β1 (TGF-β1) and a mixture of bone-derived protein growth factors (BP) produced according to U.S. Pat. Nos. 5,290,763, 5,371,191 and 5,563,124, were tested for their effects on stimulation of proteoglycan synthesis in ovine nucleus pulposus cells. […] At these time points, the cells were fixed and the amount of proteoglycan synthesis was measured by the Alcian blue assay as described in Example 10.

[4] = system: baboon intervertebral disc nucleus pulposus cells; test: Alcian blue assay of proteoglycan synthesis, baboon cells; conditions: 8 days, 10 ng/ml
Description: (§1) Human intervertebral disc cells from Example 9 were seeded and grown in 24 well plates in TCM in the presence or absence of exogenous growth factors. At various time points, TCM was aspirated out from the wells and the wells washed 3 times with PBS. The cells were then fixed with 4% paraformaldehyde (pH 7.4) for 10 min. The fixed cells were washed 2 times with PBS and then stained overnight with 0.5% Alcian blue in 0.1N hydrochloric acid (pH 1.5). After overnight staining, excess stain was rinsed out with 3 rinses of PBS. The remaining Alcian blue stain (bound to proteoglycans) was dissolved overnight into 6 M guanidine hydrochloride and the absorbance at 630 nm was measured using a spectrophotometer, providing an indication of the induction of matrix production by exogenous growth factors in human nucleus pulposus cells.
The foregoing procedure was also applied to sheep and baboon intervertebral nucleus pulposus cells from Example 9 to obtain an indication of the induction of matrix production by exogenous growth factors in sheep and baboon nucleus pulposus cells.
TGF-β1 and BP were tested for their effects on stimulation of proteoglycan synthesis in baboon nucleus cells. […] The cells were fixed after 4 and 8 days of continuous exposure to growth factors, and proteoglycan synthesis was detected by the Alcian blue assay as described in Example 10.

[5] = system: sheep intervertebral disc nucleus pulposus cells; test: ELISA of Type II collagen and chondroitin-6-sulfate production; conditions: 7 days, 10 ng/ml
Description: To detect specific antigenic epitopes in the synthesized matrix, sheep intervertebral nucleus pulposus cells from Example 9, seeded and grown in monolayer, were fixed in 2% glutaraldehyde for 1 hour at room temperature. The fixed cells were washed 3 times with TBS for 5 min. each. To block non-specific antibody binding, the cells were incubated in a solution of Tris buffered saline (TBS) containing 1 mM ethylene-diamine-tetraacetic acid (EDTA), 0.05% Tween-20™, and 0.25% bovine serum albumin for 1 hour. The blocking step was followed by 3 washes with TBS for 5 min. each. The cells were incubated with the primary antibody at room temperature for 2.5 hours, and the excess primary antibody was removed by 3 washes with TBS for 5 min. each. A second incubation with blocking buffer was performed for 10 min., followed by 3 washes with TBS. […] The bound primary and secondary antibodies were detected by addition of an enzyme-specific substrate which produced a colored reaction. The colorimetric measurement was performed using a spectrophotometer, providing a quantitative measure of the presence of the bound antibodies. […]
After incubation with growth factors for 7 days, cell cultures were fixed in 2% glutaraldehyde and the quantity of Type II collagen and chondroitin-6-sulfate produced in the cell cultures was detected by ELISA according to the procedure described in Example 11. […]

[6] = system: human intervertebral disc nucleus pulposus cells; test: Alcian blue assay of proteoglycan synthesis, human cells; conditions: 10 ng/ml
Description: as §1
TGF-β1 and BP were tested for their effects on stimulation of proteoglycan synthesis in human nucleus cells. Human intervertebral disc nucleus pulposus cells obtained from Disc L5-S1 of a patient were cultured as described in Examples 8 and 9 and seeded into 24-well plates. After the cells adhered to the well surface, multiple dilutions of different growth factors were added. The concentrations of growth factors tested were 10 ng/ml TGF-β1, and 10 and 20 μg/ml of BP. The dilutions were prepared in TCM. The cells were fixed after 5 and 8 days of continuous exposure to growth factors and proteoglycans synthesized were detected by the Alcian blue assay as described in Example 10.
A second experiment to test the effects of TGF-β1 and BP on proteoglycan synthesis was performed on a different human patient from that described in Example 14. Human intervertebral disc cells obtained from another patient were cultured as described in Examples 8 and 9 and seeded into 24 well plates. Growth factors were added after the cells were allowed to adhere overnight. […] After 6 and 9 days the cells were fixed and the amount of proteoglycans synthesized was measured by the Alcian blue assay as described in Example 10.

Row | Compound | cytotoxicity (MTT) ([1]; 1000 ppm in TCM, by itself (no free radical production), FIG. 29: 24 hours post-UV) | cell death by free radicals from UV light with Irgacure 2959 (MTT) ([1]; 1000 ppm plus 365 nm UV for different lengths of time) | cytotoxicity (MTS, absorbance at 570 nm) [2] | increase in proteoglycan synthesis above 0.5% serum control ([3]; 7 day) | increase in proteoglycan synthesis above 0.5% serum control ([3]; 10 day) [%] | increase in proteoglycan synthesis over the control [4] [%] | increased production of Type II collagen over controls [5] [%] | increased production of chondroitin-6-sulfate over controls [5] [%] | increase in Alcian blue staining over the control ([6]; Example 14 patient, 8 days) [%] | more proteoglycans than control ([6]; Example 15 patient, 6 days) [%] | increased proteoglycan production over controls ([6]; Example 15 patient, 9 days) [%]
1 | CC(C)(O)C(=O)c1ccc(OCCO)cc1 [Irgacure 2959] | not significantly cytotoxic | significant only at 5 and 10 min of UV exposure | cytocompatible | – | – | – | – | – | – | – | –
2 | C=CN1CCCCCC1=O [vinyl caprolactam] | – | – | cytocompatible | – | – | – | – | – | – | – | –
3 | Transforming growth factor-β1 [TGF-β1] | – | – | – | not significant | 52 | 21 | 115 | 800 | 42 | 54 | 74
